Data from US9677079B2, “Yeast cells expressing amyloid beta and uses therefor” (Whitehead Insititute for Biomedical Research, priority 2010, dated 2017).
Entries after “also recorded” stand apart in the source; their conditions may differ.

Columns and labels:
[1] = system: GAL1-induced expression (GAL controlled YFP); experiment: GAL1-induced expression measured by flow cytometry of GAL controlled YFP; format: cell-based, Saccharomyces cerevisiae; conditions: flow cytometry of GAL controlled YFP (data not shown)
[2] = system: strain expressing toxic levels of Aβ (ssAβ 1-42 strain); experiment: Clioquinol rescue: growth in liquid culture of ssAβ 1-42 strain and YFP control strain (Bioscreen, OD600); format: cell-based, Saccharomyces cerevisiae; conditions: FIG. 4
Method: To further test the effect of clioquinol, a control strain and a strain expressing toxic levels of Aβ were grown in liquid culture with various concentrations of the compound.
To generate ssAβ1-42 screening strains the ssAβ1-42 construct was moved to a pAG Gal p305 expression vector (S. Alberti, A. D. Gitler, S. Lindquist, A suite of Gateway cloning vectors for highthroughput genetic analysis in Saccharomyces cerevisiae. Yeast 24, 913 (2007)). The plasmid was digested using BstX1, gel purified and transformed into W303. The transformation was carried out in duplicate and the level of growth of 16 transformants each was tested on synthetic deficient media lacking leucine with galactose. Two strains from the independent transformations where chosen as screening strains based on their robust yet intermediate toxicity that would allow for the identification of both suppressors and enhancers. […] The control strain for wild type yeast growth is carrying a Gal inducible YFP integrated in the same fashion as the ssAβ1-42 constructs. For spotting assays strains were grown over night at 30° C. in 3 ml SD media lacking the relevant amino acids and containing glucose. Cell concentrations (OD600) were adjusted in a 96-well plate to that of the strain with the lowest concentration. Cells were then 5 fold serially diluted and spotted on SD media containing glucose (Uninduced) and galactose (Induced). Plates were incubated at 30° C. for 2 (glucose) or 3 days (galactose).
Yeast strains were grown overnight to saturation in synthetic medium with glucose as the carbon source after inoculation from a colony. These cultures were used to inoculate raffinose cultures. Raffinose cultures in log phase growth (OD600 0.7-0.9) were diluted to an OD600 of 0.03 in synthetic medium with galactose as the carbon source, and […] of the cell suspension was distributed to each well of a Bioscreen plate. […] of clioquinol (Sigma C8133, ˜95%), dissolved in DMSO at 100 times the final intended concentration, was added to each well. […]

Oc1c(I)cc(Cl)c2cccnc12 [clioquinol] was tested, and the “effect on GAL1-induced expression” value [1] was “did not diminish GAL1-induced expression”, the “toxicity at higher concentrations” value ([2]; higher concentrations, ssAβ 1-42 strain and YFP control strain) was “toxic to both strains” and the “growth at the optimal concentration compared with control strain” value ([2]; optimal concentration, control strain expressing YFP) was “nearly as robust as that of the control strain; also recorded: restored growth levels to those of a control strain expressing YFP”. The “growth of the Aβ expressing strain (dose dependence of rescue)” value ([2]; ssAβ 1-42 strain in inducing (galactose) media, various concentrations) was “improved the growth of the Aβ expressing strain in a dose dependent manner; also recorded: rescued growth levels in a dose dependent manner”.
